Key:
Nectin-4 [1] = target: T1, Nectin-4 (Homo sapiens, UniProt Q96NY8); assay: In vitro blocking of [^68Ga]AJ647 uptake by non-radioactive AJ647; format: cell-based; conditions: pre-incubation with 2 μM non-radioactive AJ647
T1 construct: host or cells: HT1376, SCaBER, T24, RT112, UC9, UC14 urothelial carcinoma cells; HT1376 xenografts in NSG mice
T1 sequence (Q96NY8 32-510): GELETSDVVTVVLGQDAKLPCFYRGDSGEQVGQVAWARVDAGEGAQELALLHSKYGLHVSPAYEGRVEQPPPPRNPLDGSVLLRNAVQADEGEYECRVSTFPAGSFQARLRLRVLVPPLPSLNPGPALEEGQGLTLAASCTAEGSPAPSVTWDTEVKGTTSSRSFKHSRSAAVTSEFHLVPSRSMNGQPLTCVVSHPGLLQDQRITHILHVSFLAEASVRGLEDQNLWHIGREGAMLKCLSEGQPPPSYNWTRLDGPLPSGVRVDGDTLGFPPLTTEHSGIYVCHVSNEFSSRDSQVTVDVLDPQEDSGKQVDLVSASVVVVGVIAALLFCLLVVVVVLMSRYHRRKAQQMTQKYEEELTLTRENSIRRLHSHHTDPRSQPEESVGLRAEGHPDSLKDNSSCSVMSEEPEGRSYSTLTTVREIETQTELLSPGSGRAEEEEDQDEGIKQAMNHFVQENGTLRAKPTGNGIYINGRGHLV
Method: Figure 3. In vitro specificity of [^68Ga]AJ647 for Nectin-4 in bladder cancer cell lines A) [^68Ga]AJ647 binding (percent incubated activity, %IA) to various bladder cancer cell lines. Cells were incubated with ~37 kBq (~1 μCi) [^68Ga]AJ647 at 4°C for 1 hour. […] B) Flow cytometry analysis of Nectin-4 receptor expression across different bladder cancer cell lines, providing insight into the variability in receptor density among the cell lines. […] Data in figure A and C are represented as mean ± SD. Pearson correlation used in C.

Nectin-4 [2] = target: T1, Nectin-4; assay: In vivo blocking of [^68Ga]AJ647 uptake by non-radioactive AJ647, HT1376 xenografts; design: species or system mouse; conditions: 1 mg/kg non-radioactive AJ647; PET
Method: Dynamic PET-MR imaging was performed for up to 90 minutes post-injection. […] By 60 minutes, the tumor contrast had further improved due to background radiotracer clearance, as evidenced by the percent injected activity per cubic centimeter (%IA/cc) values derived from [^68Ga]AJ647 PET (Fig. 4B). […] In contrast, minimal uptake was detected in non–Nectin-4-expressing tissues such as muscle.
Mice with tumor volume of ~100–150 mm^3 were injected with ~[…] (7.4 MBq) of [^68Ga]AJ647 in […] of 5% ethanol in saline intravenously and anesthetized under 2.5% isoflurane. PET-CT images were acquired at 60 minutes after radiotracer injection at 5 min/bed in an ARGUS small-animal PET/CT scanner (Sedecal, Madrid, Spain) as described (n=3 unless otherwise noted). PET-MR images were acquired on a simultaneous 7T Bruker PET-MR scanner. Dynamic imaging was conducted to evaluate pharmacokinetics of [^68Ga]AJ647. […] The SUV values were calculated by finding percent of injected activity (%IA) based on a calibration factor obtained from a known radioactive quantity, then normalizing by mice weight. […] For change in accessible Nectin-4 levels following EV treatment, ΔSUV was calculated by subtracting baseline (pre-treatment) uptake from post-therapy uptake of [^68Ga]AJ647. Target engagement was quantified by normalizing this change by initial SUV in same subject controls. […]

[3] = format: physicochemical
Method: The ^68Ge/^68Ga generator was manually eluted using […] of 0.1M HCl (Ultrapure trace-metal-free) in four different fractions (2.4 mL, 1 mL, 1 mL, and 1.4 mL). […] The reaction mixture was incubated for 12 min at 65 °C in a temperature-controlled heating block and purified on a RP-HPLC system using a semi-preparative C-18 Luna column ([…], 10 × 250 mm Phenomenex, Torrance, CA). The HPLC condition was gradient elution starting with 20% acetonitrile: water (0.1% formic acid) and reaching 60% acetonitrile: water (0.1% formic acid) in 20 min at a flow rate of 5 mL/min. […] The desired radiolabeled fraction was concentrated under a stream of N2 at 60 °C, formulated in 10% EtOH in saline, and used for in vitro and in vivo studies. The whole radiolabeling process was completed in approximately 35 min. Quality control, stability studies, and chemical identity were also performed on the same HPLC system using the same HPLC gradient as described above.

T24 cells = assay: In vitro binding of [^68Ga]AJ647 to T24 cells; format: cell-based; conditions: ~37 kBq (~1 μCi), 4°C, 1 hour, mean ± SD
Method: […] After incubation, cells were washed three times with ice cold PBS containing 0.1% Tween®20 and counted on an automated gamma counter. All cell radioactivity uptake studies were performed in quadruplicate for each cell line and repeated three times.

in vivo = conditions: male, mouse, iv, 1.85 MBq, total radioactivity
Method: All mouse studies were conducted through Johns Hopkins University Animal Care and Use Committee (ACUC) approved protocols. Protocol M021M175 was approved by Chair, ACUC. Xenografts were established in five-to-six-weeks old, male, non-obese, diabetic, severe-combined immunodeficient gamma (NSG) mice obtained from the Johns Hopkins University Immune Compromised Animal Core.
Mice were injected with cancer cells subcutaneously in […] PBS (top right flank) for all tumor models. Following cell numbers were used: HT1376 (4 M), UC9 (3 M), UC14 (3 M), RT112 (1.5 M), T24(3 M), SCaBER (4 M). Mice with tumor volumes of 100–200 mm^3 were used for all experiments. A minimum of 4 mice were used for all biodistribution studies. A minimum of 7 mice were used in pharmacodynamics experiment to account for greater variability.
To validate imaging studies, ex vivo biodistribution studies were conducted in mice with tumors of size 100–200 mm^3. Mice received ~50 μCi (1.85 MBq) of [^68Ga]AJ647 in […] of 5% ethanol in saline intravenously and mice were sacrificed at 5–180 min after [^68Ga]AJ647 injection for pharmacokinetic evaluation (n=4 per timepoint). In all other studies, 60 min time-point was chosen. Selected tissues (Blood, Skin, Muscle, Bone, Salivary glands, Tumor, Lungs, Heart, Liver, Pancreas, Spleen, Kidneys, Bladder, Testicles) were collected, weighed, counted, and their %IA/g values calculated as described previously (PMID: 37793856). For EV pharmacodynamics studies, fewer organs were harvested to accommodate more number of mice.

SMILES	effect of blocking dose on [^68Ga]AJ647 uptake in bladder cancer cell lines (Nectin-4 [1])	effect on [^68Ga]AJ647 tracer uptake in HT1376 xenografts (Nectin-4 [2])	stability of [^68Ga]AJ647 confirmed [3]	[^68Ga]AJ647 binding (percent incubated activity) (T24 cells) [%IA]	tissue to tissue ratio at 0.25 h (in vivo; NSG)	tissue to tissue ratio at 1 h (in vivo; NSG)	tissue uptake at 2 h (in vivo; Adrenals %IA/g) [%ID/g]	tissue uptake at 3 h (in vivo; Adrenals %IA/g) [%ID/g]	tissue uptake at 3 h (in vivo; Brain %IA/g) [%ID/g]	tissue uptake at 3 h (in vivo; Kidney %IA/g) [%ID/g]	tissue uptake at 1 h (in vivo; Large Intestine %IA/g) [%ID/g]	tissue uptake at 2 h (in vivo; Large Intestine %IA/g) [%ID/g]	tissue uptake at 3 h (in vivo; Large Intestine %IA/g) [%ID/g]	tissue uptake at 1 h (in vivo; Testicles %IA/g) [%ID/g]
CSCC[C@@H]1NC(=O)[C@@H]2CSCCC(=O)N3CN(CN(C3)C(=O)CCSC[C@H](NC(=O)CCOCCOCCOCCOCCOCCOCCOCCOCCOCCOCCOCCOCCNC(=O)CN3CCN(CC(=O)O)CCN(CC(=O)O)CC3)C(=O)N3CCC[C@H]3C(=O)N[C@@H](Cc3cccc4ccccc34)C(=O)N[C@@H](CC(=O)O)C(=O)N2)C(=O)CCSC[C@@H](C(N)=O)NC(=O)[C@H](Cc2c[nH]c3ccccc23)NC(=O)[C@@H]2C[C@@H](O)CN2C(=O)[C@@H]2CCCN2C(=O)[C@H]([C@@H](C)O)NC(=O)[C@H](CO)NC(=O)[C@H](Cc2c[nH]c3ccccc23)NC(=O)[C@@H](CC(=O)O)NC(=O)[C@H](CCCCNC(=N)N)NC1=O [AJ647]	significantly reduced radiotracer uptake	reduction in tracer uptake												
CSCC[C@@H]1NC(=O)[C@@H]2CSCCC(=O)N3CN(CN(C3)C(=O)CCSC[C@H](NC(=O)CCOCCOCCOCCOCCOCCOCCOCCOCCOCCOCCOCCOCCNC(=O)CN3CCN(CC(=O)O)CCN(CC(=O)O)CC3)C(=O)N3CCC[C@H]3C(=O)N[C@@H](Cc3cccc4ccccc34)C(=O)N[C@@H](CC(=O)O)C(=O)N2)C(=O)CCSC[C@@H](C(N)=O)NC(=O)[C@H](Cc2c[nH]c3ccccc23)NC(=O)[C@@H]2C[C@@H](O)CN2C(=O)[C@@H]2CCCN2C(=O)[C@H]([C@@H](C)O)NC(=O)[C@H](CO)NC(=O)[C@H](Cc2c[nH]c3ccccc23)NC(=O)[C@@H](CC(=O)O)NC(=O)[C@H](CCCCNC(=N)N)NC1=O [[^68Ga]AJ647, metal not drawn]			up to 3 hours	0.2±0.11	1.31 ± 0.41	4.6 ± 1.07	3.11 ± 0.21	3.01 ± 0.27	0.07 ± 0.01	24.8 ± 8.74	0.25 ± 0.13	0.18 ± 0.06	0.28 ± 0.13	0.71 ± 0.24

From doi:10.1101/2024.12.25.630315 (bioRxiv, 2024)
